# Like-named read-outs stand apart in the source and are kept apart here.
# How the values were obtained:
# AF patients [1] = conditions: BAFTA; mean follow-up 2.7 years; cited from earlier work
# AF patients [2] = conditions: ACTIVE W; mean follow-up 1.3 years; cited from earlier work
# [3] = test system: patients with atrial fibrillation at risk of stroke
# Text: Median follow-up was 2.0 years and the primary outcome was stroke or systemic embolism.
# Patients were recruited from 951 clinical centers in 44 countries. In brief, patients were eligible if they had atrial fibrillation documented on electrocardiogram at screening or within 6 months; and at least one of the following: prior stroke or transient ischemic attack; left ventricular ejection fraction less than 40%; New York Heart Association heart failure symptoms of Class 2 or greater within 6 months; age at least 75 years; or age at least 65 years with diabetes mellitus, hypertension or coronary artery disease.
# The time in therapeutic range was calculated by the method of Rosendaal (Rosendaal F R, et al., A method to determine the optimal intensity of oral anticoagulant therapy, Thromb Haemost, 1993, 69:236-239), excluding INRs from the first week and after discontinuations. […] Concomitant use of aspirin (less than 100 mg/day) or other antiplatelet agents was allowed.
# Liver function testing was performed monthly during the first year of follow-up.
# The primary study outcome was stroke or systemic embolism. The primary safety outcome was major hemorrhage. Secondary outcomes were stroke, systemic embolism and death. Other outcomes were myocardial infarction, pulmonary embolism, transient ischemic attacks, and hospitalizations. The primary net benefit-risk outcome was the composite of stroke, systemic embolism, pulmonary embolism, myocardial infarction, death or major hemorrhage. Stroke was defined as sudden onset of focal neurological deficit consistent with the territory of a major cerebral artery and categorized as ischemic, hemorrhagic or unspecified. Hemorrhagic transformation of ischemic stroke was not considered as hemorrhagic stroke. Intracranial hemorrhage included hemorrhagic stroke and sub-dural or sub-arachnoid hemorrhage. Systemic embolism was an acute vascular occlusion of an extremity or organ documented by imaging, surgery or autopsy. Major bleeding was defined as a reduction in hemoglobin level of at least […] or transfusion of at least 2 units of blood or symptomatic bleeding in a critical area or organ. Life-threatening bleeding was a subset of major bleeding that included fatal bleeding, symptomatic intracranial bleeding, bleeding with hemoglobin decrease of more than […] or requiring transfusion of more than 4 units of blood or requiring inotropic agents or necessitating surgery. All other bleeding was considered minor.
# All primary and secondary outcome events were blindly and doubly adjudicated. An international team of adjudicators reviewed documents in local languages after blinding; or documents were translated by a independent group and blinded centrally. All transient ischemic attacks were reviewed to ensure that strokes had not been missed. To detect possible unreported events, symptom questionnaires were regularly administered to patients, and adverse events and hospitalization reports were scrutinized for unreported primary or secondary outcomes.
# If maximum of the two p-values was greater than 0.025, the minimum of the two p-values must be less than 0.0125, one-sided, to claim statistical significance. All analyses were based on intention-to-treat.
# AF patients [4] = conditions: SPORTIF V; Warfarin vs. Ximelagatran; mean follow-up 1.66 years; cited from earlier work
# AF patients [5] = conditions: SPORTIF III; Warfarin vs. Ximelagatran; mean follow-up 1.45 years; cited from earlier work
structure (smiles),measurement,setting,value
"CC(=O)CC(c1ccccc1)c1c(O)c2ccccc2oc1=O (racemic) [Warfarin, 3-(α-acetonylbenzyl)-4-hydroxycoumarin]",Myocardial Infarction,AF patients [1],1.1% (warfarin)
same,Myocardial Infarction,AF patients [2],0.6% (warfarin)
same,ALT or AST > 3xULN with concurrent bilirubin > 2xULN,[3]; Warfarin,(0.4) %
same,Adverse Event: Arthralgia,[3]; Warfarin,(5.5) %
same,Adverse Event: Atrial fibrillation,[3]; Warfarin,(5.4) %
same,Adverse Event: Back pain,[3]; Warfarin,(5.5) %
same,Adverse Event: Chest pain,[3]; Warfarin,(5.7) %
same,Adverse Event: Cough,[3]; Warfarin,(5.8) %
same,Adverse Event: Diarrhea,[3]; Warfarin,(5.5) %
same,Adverse Event: Dizziness,[3]; Warfarin,(9.3) %
same,Adverse Event: Dyspepsia,[3]; Warfarin,(1.4) %
same,Adverse Event: Dyspnoea,[3]; Warfarin,(9.2) %
same,Adverse Event: Fatigue,[3]; Warfarin,(5.9) %
same,Adverse Event: Nasopharyngitis,[3]; Warfarin,(5.5) %
same,Adverse Event: Peripheral edema,[3]; Warfarin,(7.6) %
same,Adverse Event: Upper respiratory tract infection,[3]; Warfarin,(5.0) %
same,Adverse Event: Urinary tract infection,[3]; Warfarin,(5.3) %
same,"Life threatening major bleeding, Rate",[3]; Warfarin,1.80 /100 Person Years
same,Liver Function Test Abnormalities: ALT or AST > 3xULN,[3]; Warfarin,(2.1) %
same,"Pulmonary embolism, Rate",[3]; Warfarin,0.09 /100 Person Years
same,Reason for discontinuation: Gastrointestinal bleeding,[3]; Warfarin,(0.9) %
same,"Reason for discontinuation: Gastrointestinal disorders (including pain, vomiting and diarrhea)",[3]; Warfarin,(0.8) %
same,Reason for discontinuation: SAE,[3]; Warfarin,(1.6) %
same,hepatobiliary disorders (AE),[3]; Warfarin,(2.2) %
same,hepatobiliary disorders (SAE),[3]; Warfarin,(0.4) %
same,"Rate of primary outcome, stroke or systemic embolism","[3]; warfarin, median follow-up 2.0 years",1.70 % per year
same,Myocardial Infarction,AF patients [4],1.4% (warfarin)
same,Myocardial Infarction,AF patients [5],0.6% (warfarin)
